# Where two headings read alike, the source gives them in different places.
# Columns and labels:
# [1] = test system: KB3 (epitheloid lung cancer) cell lines; test: Cell growth inhibition (cytotoxicity), MTS assay, KB3 cell line; format: cell-based; settings: KB3, MTS assay, triplicate, read-out: KB3 IC50
# Protocol: Cell growth inhibition was determined by the MTS assay; the number of viable cells were proportional to the extent of formazan production in the presence or absence of drugs. […]
# [2] = test system: bloodstream forms of T. brucei and T. congolense; test: Trypanocidal activity in vitro, Alamar Blue assay; format: cell-based, Trypanosoma brucei and T. congolense; settings: 48 h total incubation; for GI50: 50% growth inhibition, read-out: GI50; for MIC: lowest concentration at which all cells were killed, read-out: MIC
# Excerpt: Trypanosoma brucei and T. congolense are the causative agents of sleeping sickness in humans and nagana in cattle, respectively. The protozoan parasites live extracellularlyin blood and tissue fluids of mammals and are transmitted by the bite of infected tsetse flies (Glossina spp.). Here the trypanocidal activity against bloodstream forms of T. brucei and T. congolense of bis-8-hydroxy quinoline N-substituted benzylamines derivatives was investigated in vitro, according to methods described in. Steverding et al. (2006) Kinetoplastid Biology and Disease, 5(3): 1-5; Hongmance et al., (2007) Antimicrob. Agents Chemother. 51:1105-1106; and Zhao et al., (2005) Bio-org. Med. Chem.; 13: 3921-3926. Cells were seeded into 96-well tissue culture plates in 200 μl medium containing various concentrations of analogues dissolved in H2O. The controls contained the respective solvent alone. […] After 24 h (trypanosomes) or 43 h (HL-60) incubation, 20 μl of the colorimetric viability indicator Alamar Blue® was added to each well. The cells were incubated for a further 24 h (trypanosomes) or 5 h (HL-60) so that the total incubation time was 48 h. Then, the plates were read on a Dynatech MR5000ELISA reader (Denkendorf, Germany),using a test wavelength of 550 nm and a reference wave length of 630 nm. Each test was set up in duplicate and repeated three times. For comparison, the general cytotoxicity of the compounds was assayed with human myeloid leukaemia HL-60 cells. The anti-trypanosomal activities and the general cytotoxicities of the new analogues were evaluated using the Alamar Blue® assay.
# caspases 3/7 = test: Caspases 3/7 activation in HL60 cells (DEVD reagent); format: cell-based, human; settings: 48 hours
# Excerpt: (§1) 7223, using standard commercially available diagnostic kits (Calbiochem, USA). Assay reagents used were DEVD for caspases 3/7, […] for caspases 8, and LEHD for caspases 9. Moreover, colchicine was used as reference compound that induces this activity of caspases.
# caspases 8 = test: Caspases 8 activation in HL60 cells (IEDT reagent); format: cell-based, human; settings: 48 hours, 1 μM, 0.1 μM and 0.01 μM
# Excerpt: as §1
# caspases 9 = test: Caspases 9 activation in HL60 cells (LEHD reagent); format: cell-based, human; settings: 48 hours, 1 μM, 0.1 μM and 0.01 μM
# Excerpt: as §1
# [3] = test system: U373 (human glioblastoma-astrocytoma); test: Growth inhibition, MTT colorimetric assay, U373; format: cell-based; settings: Homo sapiens, U373 MG, 72 h; glioma; 3 days with drug; means of six values; unit inferred; read-out: IC50 U373
# Protocol: (§2) Compounds that met the criteria for activity on KB3 cells were further tested for drug growth inhibitory activity in 5 carcinoma, 6 glioma and 3 melanoma cell lines, shown in Table 4. A549 (human lung adenocarcinoma epithelial), BxPC3 (pancreatic cancer), LoVo (colon cancer), MCF-7 (epithelial breast cancer), PC3 (human prostate cancer), Hs683 (human glioma), T98G (glioblastoma), U373 (human glioblastoma-astrocytoma), U138 MG (human glioma), epithelial-like), SKMEL28 (human melanoma), B16-F10 (mouse melanoma) and RhTP (rhabdomyosarcoma) cell lines were cultured in presence of the drugs for 3 days. The cytotoxic activity is expressed as (IC50). Inhibition of cell proliferation measured by the MTT colorimetric assay. The values reported in Table 4 are means of six distinct values. The standard errors are <5% as compared to the mean values.
# U138 MG (human glioma) = test: Growth inhibition, MTT colorimetric assay, U138; format: cell-based; settings: Homo sapiens, U138-MG, 72 h; glioma; 3 days with drug; means of six values; unit inferred; read-out: IC50 U138
# Protocol: as §2
# GL19 = test: Growth inhibition, MTT colorimetric assay, GL19; format: cell-based; settings: GL19, 72 h; 3 days with drug; means of six values; unit inferred; read-out: IC50 GL19
# Protocol: as §2
# RhTP (rhabdomyosarcoma) = test: Growth inhibition, MTT colorimetric assay, RhTp; format: cell-based; settings: 72 h; 3 days with drug; means of six values; unit inferred; read-out: IC50 RhTp
# Protocol: as §2
# KaKa = test: Growth inhibition, MTT colorimetric assay, KaKa; format: cell-based; settings: 72 h; 3 days with drug; means of six values; unit inferred; read-out: IC50 KaKa
# Protocol: as §2
# Host = test: Growth inhibition, MTT colorimetric assay, Host; format: cell-based; settings: 72 h; 3 days with drug; means of six values; unit inferred; read-out: IC50 Host
# Protocol: as §2
# SKMEL28 (human melanoma) = test: Growth inhibition, MTT colorimetric assay, SKMEL-28; format: cell-based; settings: Homo sapiens, SK-MEL-28, 72 h; melanoma; 3 days with drug; means of six values; unit inferred; read-out: IC50 SKMEL-28
# Protocol: as §2
# B16-F10 (mouse melanoma) = test: Growth inhibition, MTT colorimetric assay, B16F10; format: cell-based; settings: Mus musculus, B16-F10, 72 h; melanoma; 3 days with drug; means of six values; unit inferred; read-out: IC50 B16F10
# Protocol: as §2
# [4] = test system: HT-22, an immortalized mouse hippocampal cell line; test: Neuroprotection of HT-22 cells against toxic insults (calcein viability assay); format: cell-based
# Protocol: It is known (P. Aoun, 2003 Eur. J. Pharm. 472:65-71) that Peroxisome proliferator-activated receptors (PPARs) are involved in regulating many metabolic and inflammatory processes. The present invention explores the role of PPAR ligands in protecting neuronal cultures from toxic insults. For that purpose, the new PPAR agonists described in Example 1 were screened for their potential role as neuroprotective compounds. Experiments were performed using HT-22, an immortalized mouse hippocampal cell line, and SK-N-SH, a human neuroblastoma cell line. HT-22 was selected because it expresses PPARγ receptors. Cell viability against glutamate, hydrogen peroxide (H2O2), and serum deprivation insults was determined using a calcein assay. […] Additionally, compounds were protective even when administered simultaneously with glutamate, or for up to 8 h postglutamate insult.
# HT-22, an immortalized mouse hippocampal cell line, and SK-N-SH, a human neuroblastoma cell line, were used. HT-22 cells were obtained from David Schubert (Salk Institute, San Diego, Calif.). The HT-22 line was originally selected from HT-4 cells based on glutamate sensitivity. SK-N-SH cells were obtained from ATCC (Manassas, Va.). HT-22 and SK-N-SH cells were grown to confluency in Dulbecco's modified essential medium (DMEM) and RPMI-1640 media, respectively, and supplemented with 10% charcoal/dextran-treated fetal bovine serum (FBS) and […] gentamicin at 37° C. under 95% air/5% CO2. HT-22 cells were plated at a density of 50,000 cells/ml (5000 cells/well), and SK-N-SH cells were plated at a density of 120,000-150,000 cells/ml (12,000-15,000 cells/well) in 96-well plates. In most studies, wells were pretreated with PPAR ligands over a wide dose range at various times prior to being subjected to either glutamate, hydrogen peroxide, or serum deprivation insults. In some studies, the insults were applied prior to the addition of the PPAR ligand.
# The following analogues were tested on the HT22 cell line for their neuroprotective effect against glutamate insult and for their anti-inflammatory activity on relevant, models including HT22 cell line.
# [5] = test system: A549 (human lung adenocarcinoma epithelial); test: Growth inhibition, MTT colorimetric assay, A549; format: cell-based; settings: Homo sapiens, A549, 72 h; carcinoma; 3 days with drug; means of six values; unit inferred; read-out: IC50 A549
# Protocol: as §2, with “A549” for “Compounds that met the criteria for activity on KB3 cells were further tested for drug growth inhibitory activity in 5 carcinoma, 6 glioma and 3 melanoma cell lines, shown in Table 4. A549”, “values.” for “values. The standard errors are <5% as compared to the mean values.”
# [6] = test system: BxPC3 (pancreatic cancer); test: Growth inhibition, MTT colorimetric assay, BxPC3; format: cell-based, human; settings: Homo sapiens, BXPC-3, 72 h; carcinoma; 3 days with drug; means of six values; unit inferred; read-out: IC50 BxPC3
# Protocol: Cells are cultured at 37° C. in Falcon culture dishes, incubated at 5% CO2 in a suitable culture medium available from Invitrogen Corp. Anti-proliferative activity is determined by an MTT assay (bromide of (3-[4,5-dimethylthiazolium-yl]diphenyltetrazolium)). According to one standard protocol, absorbance is measured at 570 nm (see Dumont et al. (2007) Neoplasia 9: 766-776.
# as §2, with “A549” for “Compounds that met the criteria for activity on KB3 cells were further tested for drug growth inhibitory activity in 5 carcinoma, 6 glioma and 3 melanoma cell lines, shown in Table 4. A549”, “values.” for “values. The standard errors are <5% as compared to the mean values.”
# LoVo (colon cancer) = test: Growth inhibition, MTT colorimetric assay, LoVo; format: cell-based; settings: Homo sapiens, LoVo, 72 h; carcinoma; 3 days with drug; means of six values; unit inferred; read-out: IC50 LoVo
# Protocol: as §2, with “A549” for “Compounds that met the criteria for activity on KB3 cells were further tested for drug growth inhibitory activity in 5 carcinoma, 6 glioma and 3 melanoma cell lines, shown in Table 4. A549”, “values.” for “values. The standard errors are <5% as compared to the mean values.”
# [7] = test system: MCF-7 (epithelial breast cancer); test: Growth inhibition, MTT colorimetric assay, MCF7; format: cell-based; settings: Homo sapiens, MCF7, 72 h; carcinoma; 3 days with drug; means of six values; unit inferred; read-out: IC50 MCF7
# Protocol: as §2, with “A549” for “Compounds that met the criteria for activity on KB3 cells were further tested for drug growth inhibitory activity in 5 carcinoma, 6 glioma and 3 melanoma cell lines, shown in Table 4. A549”, “values.” for “values. The standard errors are <5% as compared to the mean values.”
# [8] = test system: PC3 (human prostate cancer); test: Growth inhibition, MTT colorimetric assay, PC3; format: cell-based; settings: Homo sapiens, 72 h; carcinoma; 3 days with drug; means of six values; unit inferred; read-out: IC50 PC3
# Protocol: as §2
# Hs683 (human glioma) = test: Growth inhibition, MTT colorimetric assay, HS683; format: cell-based; settings: Homo sapiens, Hs 683, 72 h; glioma; 3 days with drug; means of six values; unit inferred; read-out: IC50 HS683
# Protocol: as §2, with “A549” for “Compounds that met the criteria for activity on KB3 cells were further tested for drug growth inhibitory activity in 5 carcinoma, 6 glioma and 3 melanoma cell lines, shown in Table 4. A549”, “values.” for “values. The standard errors are <5% as compared to the mean values.”
# T98G (glioblastoma) = test: cells; format: cell-based; settings: Homo sapiens, T98G, 72 h; glioma; 3 days with drug; means of six values; unit inferred; read-out: IC50 T98G
# Protocol: as §2, with “A549” for “Compounds that met the criteria for activity on KB3 cells were further tested for drug growth inhibitory activity in 5 carcinoma, 6 glioma and 3 melanoma cell lines, shown in Table 4. A549”, “values.” for “values. The standard errors are <5% as compared to the mean values.”
melting point,IC50 [3],IC50 (U138 MG (human glioma)),IC50 (RhTP (rhabdomyosarcoma)),IC50 (SKMEL28 (human melanoma)),IC50 (B16-F10 (mouse melanoma)),SMILES,IC50 ([1]; Table 3B),GI50 [2],MIC [2],IC50 ([1]; Table 3A),IC50 (GL19),IC50 (KaKa),IC50 (Host),also measured
175 to 178 °C,,,,,,"Oc1ccc(CN(Cc2ccc(O)c3ncccc23)Cc2ccc(O)c3ncccc23)c2cccnc12 [BPM19,218, 5,5′,5″-nitrilotris(methylene)triquinolin-8-ol]",> 10 µM,0.45 ± 0.1 µM,1 µM,,,,,
,0.096 µM,0.081 µM,0.084 µM,4.78 µM,0.088 µM,"Cc1ccc(CN(Cc2ccc(O)c3ncccc23)Cc2ccc(O)c3ncccc23)cc1 [BPM19,107, 5,5′-(4-(methyl)benzylazanediyl)bis(methylene)diquinolin-8-ol]",,0.31 ± 0.01 µM,1 µM,0.003 µM,1.03 µM,0.71 µM,2.46 µM,"activation of caspases 3/7 (caspases 3/7; 0.01 μM): neither BPM18,708 nor BPM19,107 has an effect; activation of caspases 3/7 (caspases 3/7; 0.1 μM): strong effect; activation of caspases 3/7 (caspases 3/7; 1 μM): strong effect; activation of caspases 8 (caspases 8): no effect; activation of caspases 9 (caspases 9): no effect; neuroprotection from H2O2 insult [4]: dose-dependent neuroprotection; neuroprotection from glutamate insult [4]: dose-dependent neuroprotection"
,0.065 µM,0.047 µM,0.069 µM,> 10 µM,0.089 µM,"Oc1ccc(CN(Cc2cccc(C(F)(F)F)c2)Cc2ccc(O)c3ncccc23)c2cccnc12 [BPM19,189, 5,5′-(3-(trifluoromethyl)benzylazanediyl)bis(methylene)diquinolin-8-ol]",,0.31 ± 0.01 µM,1 µM,2.2 µM,0.674 µM,6.47 µM,0.679 µM,IC50 [5]: 0.038 µM; IC50 [6]: 0.167 µM; IC50 (LoVo (colon cancer)): 0.094 µM; IC50 [7]: 0.03 µM; IC50 [8]: 0.037 µM; IC50 (Hs683 (human glioma)): 0.036 µM; IC50 (T98G (glioblastoma)): 0.057 µM
114 to 116 °C,,,,,,"CC(C)(C)OC(=O)N(Cc1cccc(C(F)(F)F)c1)Cc1ccc(O)c2ncccc12 [BPM19,132, Tert-butyl-(8-hydroxyquinolin-5-yl)methyl(3-(trifluoromethyl)benzyl)carbamate]",1 µM,,,,,,,

# — US20110251238A1, “PPAR AGONIST COMPOSITIONS AND METHODS OF USE” (BIOPHARMED, priority 2008, published 2011)
